Source: patent publication US20060052326A1, “Werner's syndrome helicase as a target for anti -HIV/AIDS therapy” (priority 2004, published 2006)

Experiments:
Format in all cases: cell-based
HIV-1 LTR^ΔκB = assay: HIV-1 LTR^ΔκB-luciferase mutant reporter assay in co-transfected HeLa cells; conditions: for transcription from the HIV-1 LTR^ΔκB-luciferase construct (in words): absence of Tat
Description: To determine whether the TAR-RNA stem-loop secondary structure is sufficient to support WRN-mediated LTR trans-activation, HeLa cells were co-transfected with an HIV-1 LTR^ΔκB luciferase mutant reporter construct, lacking upstream NF-κB-responsive enhancer sequences (transcription from this construct is principally regulated at the level of elongation by TAR-RNA), RSV-HIV-1 Tat, or increasing amounts of CMV-WRN or CMV-WRNK577M (0.25, 0.5, 1.0 μg). Luciferase assays were performed as described using equivalent amounts of total cellular proteins.
The next experiment was undertaken to determine whether interactions with the Tat protein influence WRN's ability to trans-activate the HIV-1 LTR. […] All experiments were performed in duplicate or triplicate and error bars representative of standard deviations are shown in FIG. 4C.

HIV-1 LTR [1] = assay: HIV-1 LTR-luciferase reporter assay in co-transfected HeLa cells; conditions: for effect on basal HIV-1 LTR transcriptional activity (in words): absence of Tat
Description: To determine whether the WRN or BLM helicases influence HIV-1 transcriptional activity and viral replication, HeLa cells were co-transfected with an HIV-1 LTR-luciferase reporter plasmid (0.5 μg), RSV-HIV-1 Tat (0.5 μg), and increasing amounts of CMV-WRN or CMV-BLM expression constructs (0.25, 0.5, 1.0 μg). Following transfection, the cells were lysed by repeated freeze-thawing and luciferase assays were performed using equivalent amounts of total cellular proteins.
Next, an assay was performed to determine whether WRN-associated helicase activity is required for WRN-mediated trans-activation from the HIV-1 LTR. HeLa cells were co-transfected as in A with the HIV-1 LTR-luciferase reporter plasmid (0.5 μg), RSV-HIV-1 Tat (0.5 μg), or increasing amounts of CMV-WRN and CMV-WRNK577M (a trans-dominant negative helicase-defective mutant) (0.25, 0.5, 1.0 μg) in the absence of HIV-1 Tat expression. Results shown in FIG. 3B are averages from duplicate assays and error bars representing standard deviations between samples are provided.

HIV-1 LTR [2] = assay: HIV-1 LTR-luciferase reporter assay in Jurkat E6.1 T-cells; conditions: Jurkat E6.1 lymphocytes
Description: To determine the influence of the WRN helicase upon HIV-1 LTR transcriptional activation in CD4^+ lymphocytes, Jurkat E6.1 T-cells were co-transfected with HIV-1 LTR-luciferase (0.5 μg), RSV-HIV-1 Tat (0.5 μg), and increasing amounts of CMV-WRN or CMV-WRNK577M, which expresses a trans-dominant negative helicase-defective mutant (0.25, 0.5, 1.0 μg). Following transfection, the cells were lysed by repeated freeze-thawing and luciferase assays were performed, in duplicate, using equivalent amounts of total cellular proteins.

HIV-1 LTR^ΔNFκB/ΔTAR = assay: HIV-1 LTR^ΔNFκB/ΔTAR-luciferase double-mutant reporter assay in HeLa cells
Excerpt: HeLa cells were co-transfected as in A with a double-mutant, HIV-1 LTR^ΔNFκB/ΔTAR-luciferase reporter plasmid, deleted for κB-responsive elements and TAR-RNA sequences, RSV-HIV-1 Tat, CMV-WRN, or CMV-BLM.

HIV-1 LTR [3] = assay: HIV-1 LTR-luciferase / tk-renilla normalized reporter assay in HeLa cells; conditions: for Tat-activated HIV-1 LTR luciferase activity with or without WRNK577M: highest concentration of WRNK577M versus Tat alone
Description: (§1) Therefore, we co-transfected immortalized WRN^-I- fibroblasts with a tk-renilla luciferase reporter plasmid (which produces red luminescence as a result of renilla luciferase expression driven by the Herpes Simplex Virus thymidine kinase (tk) minimal gene promoter)(0.5 μg) and an HIV-1 LTR-luciferase reporter construct (which produces green luminescence as a result of firefly luciferase expression driven by the HIV-1 LTR) (0.5 μg), and increasing amounts of RSV-HIV-1 Tat or RSV-HIV-1 TatK28A/K50A (0.15, 0.25, 0.5 μg) in the absence or presence of the trans-dominant negative CMV-WRNK577M mutant (0.5, 1.0 μg). The CMV-WRNK577M trans-dominant-negative helicase-defective mutant was co-expressed in certain experiments to inhibit Tat-activated HIV-1 LTR transcription and endogenous WRN functions in HeLa cells (Bai Y et al., Hum. Genet. 113:337-347). Samples were normalized to yield approximately equivalent renilla-luciferase expression to control for transfection efficiencies and any differences in overall transcription levels between WRN^-I- fibroblasts and HeLa cells. Normalized extracts were then compared to determine basal-level and Tat-activated HIV-1 LTR-luciferase transcription.

HIV-1 LTR [4] = assay: HIV-1 LTR-luciferase / tk-renilla normalized reporter assay in immortalized WRN^-I- fibroblasts; conditions: highest concentration of RSV-HIV-1 Tat
Description: In order to determine whether the WRN helicase is an essential cofactor for HIV-1 transcription and virus replication, basal and Tat-activated LTR-driven transcription were measured in WRN^-I-fibroblasts. These fibroblasts were obtained from Werner's syndrome patients and lack a functional WRN helicase protein (Moser M J et al., Nucleic Acids Res. 28:648-654).
as §1, with “Samples were normalized to yield approximately equivalent renilla-luciferase expression to control for transfection efficiencies and any differences in overall transcription levels between WRN^-I- fibroblasts and HeLa cells. Normalized extracts were then compared to determine basal-level and Tat-activated HIV-1 LTR-luciferase transcription.” left out

H9HIV-1IIIB lymphocytes = assay: Immunofluorescence-microscopy of p24^Gag in transfected HIV-1-infected H9 lymphocytes; conditions: PHA/hIL-2 stimulated, Myc-epitope-tagged protein over-expression
Description: Immunofluorescence-microscopy was next performed to directly assess whether over-expression of Myc-epitope-tagged WRN or the trans-dominant-negative WRNK577M mutant influence HIV-replication and production of p24^Gag in infected H9HIV-1IIIB lymphocytes. HIV-1-infected H9 lymphocytes were transfected with increasing amounts of CMV-WRN, CMV-WRNK577M, or CβF empty vector (0.12, 0.25 μg) and were stimulated with PHA and hIL-2 as described above. Immunofluorescence-microscopy was performed to determine the influence of WRN or WRNK577M over-expression upon production of HIV-1 p24^Gag and viral replication. Expression of Myc-epitope-tagged WRN and WRNK577M proteins in transfected H9 cells was detected using a rabbit anti-Myc polyclonal antibody (Moser M J et al., Nucleic Acids Res. 28:648-654). Production of intracellular HIV-1 p24^Gag capsid protein was detected using a monoclonal anti-HIV-1 p24^Gag antibody. DAPI-staining was performed to visualize nuclei.

[5] = tested on: HIV-1IIIB-infected H9 lymphocytes; assay: Intracellular p24^Gag immunoblotting in transfected HIV-1IIIB-infected H9 lymphocytes; conditions: PHA (10 ng/ml) and hIL-2 (50 U/ml) stimulated, over-expression
Description: The influence of over-expressing wild-type WRN, or trans-dominant-negative WRNK577M, proteins upon HIV-1 replication and the production of intracellular viral structural components was tested in HIV-infected H9 lymphocytes that were stimulated with PHA (10 ng/ml) and human IL-2 (50 U/ml) . HIV-1IIIB-infected H9 lymphocytes were transfected with increasing amounts of CMV-WRN, CMV-WRNK577M, or CMV-green fluorescent protein (GFP) negative control (1.0, 3.0 μg) and then stimulated with PHA (10 ng/ml) and hIL-2 (50 U/ml) to induce HIV-1 replication. The HIV-1 p24^Gag major capsid and cellular actin proteins were detected by immuno-blotting using appropriate primary antibodies. Protein expression was quantified using a densitometer and is represented graphically below immunoblotting results shown in FIG. 7A.

[6] = highest concentration of RSV-HIV-1 Tat
[7] = co-expression with Tat, increasing amounts

Q: For “BLM helicase: BLM DNA-helicase expressed from CMV-BLM construct”, which “transcription from the HIV-1 LTR^ΔκB-luciferase construct (in words)” value (HIV-1 LTR^ΔκB) is on record?
A: The value was “no significant influence”.

Q: And the “effect on basal HIV-1 LTR transcriptional activity (in words)” value (HIV-1 LTR [1])?
A: Its value is “does not affect basal HIV-1 LTR transcriptional activity”.

Q: And the “effect on Tat-mediated transcriptional activation (in words)” value (HIV-1 LTR [1]; co-expression with Tat)?
A: The value was “does not significantly influence Tat-mediated transcriptional activation”.

Q: Which “transcriptional activation from the HIV-1 LTR” value (HIV-1 LTR [2]; Tat alone) does the source give for “Tat: HIV-1 viral trans-activator protein, 81-101 amino acid residues, expressed from RSV construct” here?
A: The value was “approximately 250 fold”.

Q: And the “Tat-mediated trans-activation from the HIV-1 LTR^ΔκB-luciferase reporter” value (HIV-1 LTR^ΔκB)?
A: The value was 6.5 fold.

Q: What about the “transcriptional activation of reporter deleted for κB-responsive elements and TAR-RNA” value (HIV-1 LTR^ΔNFκB/ΔTAR) of the same molecule?
A: Its value is “completely abrogated transcriptional activation”.

Q: What about the “Tat trans-activation of HIV-1 LTR” value (HIV-1 LTR [3]; [6]) of the same molecule?
A: Its value is 22 fold.

Q: What about the “Tat-activated HIV-1 LTR luciferase activity” value (HIV-1 LTR [3]; [6]) of the same molecule?
A: Its value is 14,834,412 RLUs.

Q: What about the “Tat-activated HIV-1 LTR luciferase activity with or without WRNK577M” value (HIV-1 LTR [3]) of the same molecule?
A: The value was 14,518,374 RLUs.

Q: And the “Tat trans-activation of HIV-1 LTR” value (HIV-1 LTR [4])?
A: Its value is 0 fold.

Q: And the “Tat-activated HIV-1 LTR luciferase activity” value (HIV-1 LTR [4])?
A: The value was 340 RLUs.

Q: Which “trans-activation by Tat on co-expression of helicase” value (HIV-1 LTR [2]; [7]) does the source give for “WRN helicase: wild-type Werner's syndrome helicase protein, 1432 amino acid residues, expressed from CMV construct” here?
A: Its value is “approximately 395 fold”.

Q: And the “transcription from the HIV-1 LTR^ΔκB-luciferase construct (in words)” value (HIV-1 LTR^ΔκB)?
A: The value was “to a level approximately one-half that observed for Tat”.

Q: What about the “transcriptional activation of reporter deleted for κB-responsive elements and TAR-RNA” value (HIV-1 LTR^ΔNFκB/ΔTAR) of the same molecule?
A: Its value is “completely abrogated transcriptional activation”.

Q: What about the “intracellular p24^Gag (immunofluorescence)” value (H9HIV-1IIIB lymphocytes) of the same molecule?
A: The value was “increased intracellular p24^Gag”.

Q: What about the “intracellular production of p24^Gag capsid protein / HIV-1 replication (immunoblot)” value [5] of the same molecule?
A: Its value is “significantly higher intracellular production of the p24^Gag major viral capsid protein”.

Q: And the “effect on basal HIV-1 LTR transcriptional activity (in words)” value (HIV-1 LTR [1])?
A: The value was “transcriptionally activates the HIV-1 LTR in a dose-dependent manner”.

Q: What about the “Tat-mediated LTR trans-activation on co-expression of helicase” value (HIV-1 LTR [1]; co-expression with Tat, increasing amounts of construct) of the same molecule?
A: Its value is about 60 fold.

Q: What about the “transcriptional activation from the HIV-1 LTR” value (HIV-1 LTR [1]; wild-type LTR, factor expressed alone) of the same molecule?
A: The value was “approx. 10 fold”.

Q: How did the “effect on Tat's transcriptional activation from the HIV-1 LTR (in words)” value (HIV-1 LTR [2]; [7]) turn out when WRNK577M was run?
A: The value was “repressed nearly one-half of Tat's transcriptional activation”.

Q: And the “transcription from the HIV-1 LTR^ΔκB-luciferase construct (in words)” value (HIV-1 LTR^ΔκB)?
A: The value was “did not significantly promote transcription”.

Q: What about the “intracellular p24^Gag (immunofluorescence)” value (H9HIV-1IIIB lymphocytes) of the same molecule?
A: The value was “markedly reduced levels of p24^Gag”.

Q: And the “intracellular production of p24^Gag capsid protein / HIV-1 replication (immunoblot)” value [5]?
A: The value was “represses production of the p24^Gag major capsid protein”.

Q: What about the “effect on basal HIV-1 LTR transcriptional activity (in words)” value (HIV-1 LTR [1]) of the same molecule?
A: Its value is “represses basal transcription to levels below base-line”.

Q: And the “Tat-activated HIV-1 LTR luciferase activity with or without WRNK577M” value (HIV-1 LTR [3])?
A: The value was 5,457,345 RLUs.

B1: TatK28A/K50A (protein)
chain: MEPVDPRLEPWKHPGSQPKTACTNCYCAKCCFHCQVCFITKALGISYGRAKRRQRRRAHQNSQTHQASLSKQPTSQPRGDPTGPKE
Q: With B1 as the molecule, how does the “effect on WRN-mediated trans-activation from the HIV-1 TAR-RNA” value (HIV-1 LTR^ΔκB; co-expression with CMV-WRN) read?
A: Its value is “inhibited WRN-mediated trans-activation”.
